In patent US8324156B2, “Oral insulin therapies and protocol” (Emisphere Technologies, Inc., priority 2003, dated 2012):
Like-named read-outs stand apart in the source and are kept apart here.

What was measured:
[1] = cited from earlier work; for time to peak plasma/serum drug concentration (tmax): fasting or immediately prior to a meal
blood glucose [2] = conditions: oral sulfonylureas; cited from earlier work
blood glucose [3] = conditions: marketed insulin preparations; cited from earlier work
[4] = Plasma 4-CNAB concentration (Example 1); type: in vivo, human; conditions: after start of meal intake; 200 mg or 400 mg 4-CNAB capsules
Description: During each treatment session, blood samples were collected for determination of plasma concentrations of 4-CNAB, insulin and C-peptide, and for blood glucose concentration. Sampling started 1 hour before intake of the test meal and continued until 6 hours thereafter. Blood samples were drawn via a venous cannula and collected related to the start of the test meal at time point 0. The timing of scheduled samples could be adjusted according to clinical needs or needs for pharmacokinetic data. The duration of each session was approximately 8-9 hours. All experiments were performed after an overnight fast of approximately 12 hours.
Blood samples for determination of 4-CNAB plasma concentrations (2 mL in sodium heparin tube) were drawn 10, 20, 30, 40, 60, 90, 120, 240 and 360 minutes after start of meal intake (9 samples per session). Blood samples for determination of insulin and C-peptide plasma concentrations (5 mL in sodium heparin tube) were drawn at −60 and −30 minutes, at time 0 (start of meal intake), and after 10, 20, 30, 40, 50, 60, 75, 90, 105, 120, 150, 180, 210, 240, 300, and 360 minutes (19 samples per session). Plasma concentrations of insulin were determined by a GLP-validated microparticle enzyme immunoassay (MEIA).
Blood samples for the determination of plasma concentrations of insulin, 4-CNAB and C-peptide were collected at defined intervals, as discussed above. […]

Sprague-Dawley rats = test: Oral repeated dose toxicity studies in rats; type: in vivo, rat
Description: (§1) Toxicology studies were also conducted in rats and monkeys to assess the potential toxicity of 4-CNAB, alone or in combination with insulin. Based on the 14-day oral repeated dose toxicity studies, the NOAEL (No-Adverse Effect Level) was estimated to be 500 mg/kg in Sprague-Dawley rats, and 400 mg/kg in rhesus monkeys. […] Developmental and reproductive toxicology studies have not yet been conducted.

rhesus monkeys = test: Oral repeated dose toxicity studies in monkeys; type: in vivo, rhesus monkey
Description: as §1

Genotoxicity studies = conditions: four genotoxicity studies
Description: as §1

receptors = test: Receptor binding screening assays
Description: Insulin/4-CNAB capsules were evaluated by Emisphere Technologies, Inc. in a nonclinical program that included pharmacological screening, pharmacokinetic and metabolic profiles, and toxicity assessments in rats and monkeys. […] Similarly, for a fixed oral dose of 4-CNAB, insulin absorption increased with increasing doses of insulin.

[5] = Moisture content / hygroscopicity of 4-CNAB; type: physicochemical; conditions: below 75% RH
[6] = dosed three times daily before meals

In the case of `CC(C)[C@H]1CC[C@H](C(=O)N[C@H](Cc2ccccc2)C(=O)O)CC1` [nateglinide], the “time to stimulation of pancreatic insulin secretion” value ([1]; after oral administration) is given as at most 20 min, the “fall of plasma insulin to baseline after dosing” value [1, 6] is given as at most 4 h and the “time of peak plasma insulin levels after dosing” value [1, 6] is given as about 1 h. For the same compound, the “time to peak plasma/serum drug concentration (tmax)” value ([1]; oral) was “one”.
For `CN(CCOc1ccc(CC2SC(=O)NC2=O)cc1)c1ccccn1` (stereo not drawn) [AVANDIA® thiazolidinedione, rosiglitazone], the “time to peak concentration with food” value ([1]; food effect) is listed as “about 1.75 hours” and the “time to peak plasma/serum drug concentration (tmax)” value ([1]; oral) is listed as at most 1 h.
In the case of `CCC1=C(C)CN(C(=O)NCCc2ccc(S(=O)(=O)NC(=O)N[C@H]3CC[C@H](C)CC3)cc2)C1=O` [Glimepiride], the duration of action (blood glucose [2]) is listed as 18 to 28 h and the onset of action (blood glucose [2]) is listed as 2 h.
In the case of Lantus®, the duration of activity (blood glucose [3]) is given as “up to 24 hours”.
In the case of `Cc1cnc(C(=O)NCCc2ccc(S(=O)(=O)NC(=O)NC3CCCCC3)cc2)cn1` [Glipizide], the duration of action (blood glucose [2]) is given as 10 to 24 h and the onset of action (blood glucose [2]) is given as “one”.
For Ultralente insulin, the onset of action (blood glucose [3]) is listed as 2 to 4 h and the “peak time of effect” value (blood glucose [3]) is listed as 8 to 20 h.
In the case of Glargine insulin: long-acting insulin, the duration of activity (blood glucose [3]) is given as 24 h and the “peak time of effect” value (blood glucose [3]) is given as “no peak effect”.
For `CCCNC(=O)NS(=O)(=O)c1ccc(Cl)cc1` [Chlorpropamide], the duration of action (blood glucose [2]) is given as 72 h and the onset of action (blood glucose [2]) is given as “one”.
In the case of `CCOc1cc(CC(=O)N[C@@H](CC(C)C)c2ccccc2N2CCCCC2)ccc1C(=O)O` [repaglinide], the “decrease in AUC when given with food” value ([1]; food effect) is given as 12.4%, the “decrease in Cmax when given with food” value ([1]; food effect) is given as 20% and the “time to peak plasma/serum drug concentration (tmax)” value ([1]; oral) is given as at most 1 h.
In the case of `Cc1ccc(S(=O)(=O)NC(=O)NN2CCCCCC2)cc1` [Tolazamide], the onset of action (blood glucose [2]) is given as 4 to 6 h.
For `CCc1ccc(CCOc2ccc(CC3SC(=O)NC3=O)cc2)nc1` (stereo not drawn) [ACTOS® thiazolidinedione, pioglitazone], the “first measurable in serum” value ([1]; oral, fasting state) is listed as at most 30 min and the “time to peak plasma/serum drug concentration (tmax)” value ([1]; oral) is listed as at most 2 h.
In the case of `COc1ccc(Cl)cc1C(=O)NCCc1ccc(S(=O)(=O)NC(=O)NC2CCCCC2)cc1` [glyburide], the duration of action (blood glucose [2]) is given as 18 to 24 h and the onset of action (blood glucose [2]) is given as 1.5 h.
For `CC(=O)c1ccc(S(=O)(=O)NC(=O)NC2CCCCC2)cc1` [Acetohexamide], the onset of action (blood glucose [2]) is given as 1 h.
In the case of `CCCCNC(=O)NS(=O)(=O)c1ccc(C)cc1` [tolbutamide], the duration of action (blood glucose [2]) is given as 6 to 12 h and the onset of action (blood glucose [2]) is given as 1 h.
In the case of `O=C([O-])CCCNC(=O)c1ccc(Cl)cc1O.[Na+]` [4-CNAB, sodium N-[4-(4-chloro-2 hydroxybenzoyl)amino]butyrate], the “plasma 4-CNAB concentration after 2 hours relative to the levels seen after 10 minutes” value [4] was “less than 10%”, the “NOAEL (No-Adverse Effect Level)” value (Sprague-Dawley rats; 14-day oral repeated dose, Sprague-Dawley rats, 4-CNAB alone or in combination with insulin) was 500 mg/kg and the NOAEL (Sprague-Dawley rats; 90-day oral repeated dose, rats) was 250 mg/kg. The “NOAEL (No-Adverse Effect Level)” value (rhesus monkeys; 14-day oral repeated dose, rhesus monkeys) was 400 mg/kg, the NOAEL (rhesus monkeys; 90-day oral repeated dose, monkeys) was 600 mg/kg and the genotoxicity findings (Genotoxicity studies) was “no positive findings”. For the same compound, the inherent pharmacological activity (receptors) was “no inherent pharmacological activity” and the residual moisture content [5] was under 0.5%.
